PMC11855827, “High-Throughput Screening of Five Compound Libraries for Anthelmintic Activity and Toxicity Leads to the Discovery of Two Flavonoid Compounds” (International Journal of Molecular Sciences, 2025)
Read-outs that look alike come from different tables or passages of the source. Marks after values point to notes of the source that are not given here.

Experiments:
C. elegans [1] = conditions: read-out: EC50 found in the literature; cited from earlier work
C. elegans [2] = assay: microbe, parasite or virus in culture; conditions: Caenorhabditis elegans
C. elegans [3] = assay: C. elegans motility dose-response (DR) assay; parameters: species or system Caenorhabditis elegans
[4] = test system: T. circumcincta resistant strain; assay: Larval migration inhibition test (LMIT); parameters: species or system Teladorsagia circumcincta; conditions: resistant strain, L3, 100 μM, NE = Not Effective at 100 μM, control ivermectin 8.75 µg/mL
Excerpt: (§1) Eggs and third instar larvae (L3) of H. contortus from a field strain and a resistant strain of T. circumcincta were used in the current trials. These parasitic forms were obtained from fresh feces of Merino and Churra sheep experimentally infected at the experimental farm of the Instituto de Ganadería de Montaña (IGM, CSIC, Gruyeros, León, Spain) and purified according to previously described methods. Briefly, eggs were taken from fresh feces, washed, centrifuged and floated with a saturated sodium chloride solution, then concentrated, counted and used in the assays. L3 were obtained by culturing feces at 25 °C for 13 d. L3 larvae were […] in 0.5% sodium hypochlorite solution for 10 min at room temperature and washed to avoid excess salt. After washing, they were concentrated and counted for use.
(§2) The viability of H. contortus larvae was assessed by the larval migration inhibition test (LMIT) according to previously described methods. Briefly, 700 µL aliquots containing 500–600 L3 were prepared for each compound. […] After a 24 h incubation at 28 °C, the compound was removed by three washes, leaving a final volume of 1400 µL. After the washes, three 400 µL aliquots were taken from each tube and transferred to a 96-well plate with a MultiScreen mesh filter. The plates were incubated for a further 24 h at 28 °C to allow the motile L3 to pass through the 20 µm mesh for counting. Then, the number of larvae present in each well was counted to determine percentage of larval migration for each compound: % Larval migration=number of larvae migrating in compound wells/number of larvae migrating in negative control×100
(§3) For the larvae, ivermectin at 8.75 µg/mL and DMSO 0.5% (v/v) were used as controls and at least 12 replicates were performed. […] EC50 were determined by plotting the percentage of viability of the L1 against the concentration of each compound, using the nonlinear fit analysis provided by the SigmaPlot® 10.1.

[5] = test system: H. contortus susceptible strain; assay: Larval migration inhibition test (LMIT); parameters: species or system Haemonchus contortus; conditions: L3, 100 μM, NE = Not Effective at 100 μM, control ivermectin 8.75 µg/mL
Excerpt: as §1, §2, §3

C. elegans [6] = test system: C. elegans
[7] = test system: T. circumcincta resistant strain; assay: Egg hatch inhibition (EHI), ovicidal effect; parameters: species or system Teladorsagia circumcincta; conditions: resistant strain, 100 μM; NE = Not Effective at 100 μM; control thiabendazole 0.1 µg/mL
[8] = test system: H. contortus susceptible strain; assay: Egg hatch inhibition (EHI), ovicidal effect; parameters: species or system Haemonchus contortus; conditions: susceptible strain, 100 μM; NE = Not Effective at 100 μM; control thiabendazole 0.1 µg/mL
[9] = 0 h, read-out: Inhibition (%) 110 μM (0 h), C. elegans L4 motility, 110 μM, 0 h, mean ± SD of four experiments
[10] = 24 h, read-out: Inhibition (%) 110 μM (24 h), C. elegans L4 motility, 110 μM, 24 h, mean ± SD of four experiments
[11] = Caenorhabditis elegans, 24 h, read-out: EC50 (μM) at 24 h, C. elegans motility, DR assay, 24 h
[12] = read-out: EC50 (μM) at 24 h, C. elegans motility, DR assay
[13] = C. elegans L4 motility, 110 μM, 0 h, mean ± SD of four experiments
[14] = C. elegans L4 motility, 110 μM, 24 h, mean ± SD of four experiments

Compound	EC50 (C. elegans [3]; [11]) [µM]	EC50 (C. elegans [3]; [12]) [µM]	EC50 (C. elegans [1]) [nM]	inhibition at 110 µM (C. elegans [2]; [9]) [%]	inhibition at 110 µM (C. elegans [2]; [10]) [%]	inhibition at 110 µM (C. elegans [2]; 24 h, read-out: Percentage of motility inhibition 24 h, Table S2, C. elegans SS assay, 110 μM, 24 h, averages of 4 data points) [%]	T. circumcincta LMIT (%) [4]	H. contortus LMIT (%) [5] [%]	Inhibition (%) 110 μM (0 h) (C. elegans [6]) [%]	Inhibition (%) 110 μM (24 h) (C. elegans [6]) [%]	inhibition at 110 µM (C. elegans [2]; 0 h, read-out: Percentage of motility inhibition 0 h, Table S2, C. elegans SS assay, 110 μM, 0 h, averages of 4 data points) [%]	inhibition at 100 µM ([4]; Teladorsagia circumcincta, 24 h, read-out: T. circumcincta LMIT (%)) [%]	T. circumcincta EHI (%) [7] [%]	Inhibition (%) 110 μM (0 h) (C. elegans [6]; [13]) [%]	Inhibition (%) 110 μM (24 h) (C. elegans [6]; [14]) [%]	H. contortus EHI (%) [8] [%]
CO/N=C1\C[C@]2(C[C@@H]3C[C@@H](C/C=C(\C)C[C@@H](C)/C=C/C=C4\CO[C@@H]5[C@H](O)C(C)=C[C@@H](C(=O)O3)[C@]45O)O2)O[C@H](/C(C)=C/C(C)C)[C@H]1C [Moxidectin, reference compound]	0.79	–	30	99 ± 1	85 ± 13	86	–	–	–	–	–	–	–	–	–	–
Ivermectin [reference compound]	–	2.18	190	–	–	–	100.0 ± 0.0%	100.0 ± 0.0	98 ± 1	85 ± 14	–	–	–	–	–	–
CCOc1ccc2nc3cc(N)ccc3c(N)c2c1 [Ethacridine lactate monohydrate, reference compound]	–	28.2 ± 1	–	–	–	–	–	0.0	–	–	72	0	0.0	73 ± 17	89 ± 4	54.8 ± 11.7

Second part, led by results:

EC50 (C. elegans [3]; [11]) [µM]	EC50 (C. elegans [3]; [12]) [µM]	Compound	EC50 (C. elegans [1]) [nM]	inhibition at 110 µM (C. elegans [2]; [9]) [%]	inhibition at 110 µM (C. elegans [2]; [10]) [%]	inhibition at 110 µM (C. elegans [2]; 24 h, read-out: Percentage of motility inhibition 24 h, Table S2, C. elegans SS assay, 110 μM, 24 h, averages of 4 data points) [%]	T. circumcincta LMIT (%) [4]	H. contortus LMIT (%) [5] [%]	Inhibition (%) 110 μM (0 h) (C. elegans [6]) [%]	Inhibition (%) 110 μM (24 h) (C. elegans [6]) [%]	inhibition at 110 µM (C. elegans [2]; 0 h, read-out: Percentage of motility inhibition 0 h, Table S2, C. elegans SS assay, 110 μM, 0 h, averages of 4 data points) [%]	inhibition at 100 µM ([4]; Teladorsagia circumcincta, 24 h, read-out: T. circumcincta LMIT (%)) [%]	T. circumcincta EHI (%) [7] [%]	Inhibition (%) 110 μM (0 h) (C. elegans [6]; [13]) [%]	Inhibition (%) 110 μM (24 h) (C. elegans [6]; [14]) [%]	H. contortus EHI (%) [8] [%]
1.91	–	c1ccc([C@H]2CN3CCSC3=N2)cc1 [Levamisole, reference compound]	6400	87 ± 10	61 ± 3	–	–	–	–	–	–	–	–	–	–	–
–	45.4 ± 5.1	CC1(C)[C@H](OC(=O)c2ccccc2)CC[C@]2(C)C3=C([C@@H](O)C[C@@H]12)[C@@]1(C)CC[C@@]2(C)CC[C@@](C)(COC(=O)c4ccccc4)C[C@H]2[C@]1(C)CC3 [3,29-dibenzoyl rarounitriol]	–	–	–	–	0.0 * %	0.0	–	–	–	–	0.0	40 ± 22	71 ± 19	0.0
